Assay results taken from the supplement of paper PMC11061612.

How the values were obtained:
Test in all cases: combination Emax (second highest fraction inhibited in the dose matrix, 72 h); higher = more inhibition; extreme values may be limits of the assay
[1] = tested on: CPC-N (Small Cell Lung Carcinoma)
Method in brief: (§1)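 Bliss excess equals the observed combination effect minus the expected value EA + EB − EA·EB, where EA and EB are the effects of each agent alone. Combination Emax is the second-highest inhibition within the matrix. Inhibition was scaled from CellTiter-Glo 2.0 luminescence, with 0 set by vehicle wells and 1 by blank wells, after 72 hours of two-drug dosing of cells plated in 1536-well plates.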

[2] = tested on: PA-TU-8988T (Pancreatic Carcinoma)
Method in brief: as §1

[3] = tested on: NCI-H1876 (Small Cell Lung Carcinoma)
Method in brief: as §1

[4] = tested on: IA-LM (Non-Small Cell Lung Carcinoma)
Method in brief: as §1

[5] = tested on: MDA-MB-415 (Breast Carcinoma)
Method in brief: as §1

GAK (Melanoma) = tested on: GAK (Melanoma)
Method in brief: as §1

[6] = tested on: OVCAR-3 (Ovarian Carcinoma)
Method in brief: as §1

[7] = tested on: SK-CO-1 (Colorectal Carcinoma)
Method in brief: as §1

[8] = tested on: LCLC-103H (Non-Small Cell Lung Carcinoma)
Method in brief: as §1

[9] = tested on: BHT-101 (Thyroid Gland Carcinoma)
Method in brief: as §1

NCI-H226 (Mesothelioma) = tested on: NCI-H226 (Mesothelioma)
Method in brief: as §1

SK-N-SH (Neuroblastoma) = tested on: SK-N-SH (Neuroblastoma)
Method in brief: as §1

[10] = tested on: SCC-4 (Oral Cavity Carcinoma)
Method in brief: as §1

[11] = tested on: SNU-407 (Colorectal Carcinoma)
Method in brief: as §1

[12] = tested on: NCI-H1963 (Small Cell Lung Carcinoma)
Method in brief: as §1

[13] = tested on: KP-4 (Pancreatic Carcinoma)
Method in brief: as §1

[14] = tested on: NCI-H596 (Other Solid Carcinomas)
Method in brief: as §1

[15] = tested on: MOLT-13 (T-Lymphoblastic Leukemia)
Method in brief: as §1

[16] = tested on: MONO-MAC-6 (Acute Myeloid Leukemia)
Method in brief: as §1

ES6 (Ewing's Sarcoma) = tested on: ES6 (Ewing's Sarcoma)
Method in brief: as §1

Structure (SMILES) | combination Emax [1] | combination Emax [2] | combination Emax [3] | combination Emax [4] | combination Emax [5] | combination Emax (GAK (Melanoma)) | combination Emax [6] | combination Emax [7] | combination Emax [8] | combination Emax [9] | combination Emax (NCI-H226 (Mesothelioma)) | combination Emax (SK-N-SH (Neuroblastoma)) | combination Emax [10] | combination Emax [11] | combination Emax [12] | combination Emax [13] | combination Emax [14] | combination Emax [15] | combination Emax [16] | combination Emax (ES6 (Ewing's Sarcoma))
COc1nnc2ccc(N3CCC(c4ccc(OCCN5CCN(C)C(=O)[C@H]5C)cc4)CC3)nn12 [AZD5153] + CCN(CCO)CCCOc1ccc2c(Nc3cc(CC(=O)Nc4cccc(F)c4)[nH]n3)ncnc2c1 [AZD2811] (first compound max 1 µM, 7x7, partner max 1 µM) | 0.697 | 0.695 | 0.708 | 0.401 | 0.502 | 0.44 | 0.602 | 0.571 | 0.511 | 0.7 | 0.443 | 0.532 | 0.444 | 0.866 | 0.882 | 0.67 | 0.744 | 1 | 0.995 | 0.43
COc1nnc2ccc(N3CCC(c4ccc(OCCN5CCN(C)C(=O)[C@H]5C)cc4)CC3)nn12 [AZD5153] + C[C@@H]1COCCN1C2=NC(=NC(=C2)C3(CC3)[S@](=N)(=O)C)C4=C5C=CNC5=NC=C4 [AZD6738] (first compound max 1 µM, 7x7, partner max 10 µM) | 0.967 | 0.778 | 0.887 | 0.443 | 0.597 | 0.605 | 0.821 | 0.714 | 0.492 | 0.816 | 0.37 | 0.861 | 0.732 | 0.958 | 0.91 | 0.77 | 0.79 | 1 | 1 | 0.585
COc1nnc2ccc(N3CCC(c4ccc(OCCN5CCN(C)C(=O)[C@H]5C)cc4)CC3)nn12 [AZD5153] + Cc1c2c(nn1C)CSCc1cc(n(C)n1)CSc1cc(c3ccccc3c1)OCCCc1c(C(=O)O)n(C)c3c-2c(Cl)ccc13 [AZD5991] (first compound max 1 µM, 7x7, partner max 1 µM) | 0.751 | 0.886 | 0.949 | 0.483 | 0.693 | 0.836 | 0.632 | 0.403 | 0.414 | 0.84 | 0.407 | 0.526 | 0.775 | 0.977 | 0.89 | 0.76 | 0.79 | 1 | 1 | 0.45
COc1nnc2ccc(N3CCC(c4ccc(OCCN5CCN(C)C(=O)[C@H]5C)cc4)CC3)nn12 [AZD5153] + Cn1cnc2c(F)c(Nc3ccc(Br)cc3Cl)c(C(=O)NOCCO)cc21 [Selumetinib] (first compound max 1 µM, 7x7, partner max 10 µM) | 0.451 | 0.778 | 0.23 | 0.457 | 0.429 | 0.612 | 0.54 | 0.804 | 0.454 | 0.966 | 0.377 | 0.521 | 0.509 | 0.938 | 0.757 | 0.597 | 0.725 | 0.979 | 0.986 | 0.297
Cc1c2c(nn1C)CSCc1cc(n(C)n1)CSc1cc(c3ccccc3c1)OCCCc1c(C(=O)O)n(C)c3c-2c(Cl)ccc13 [AZD5991] + C1CN(CCC1(C(=O)N[C@@H](CCO)C2=CC=C(C=C2)Cl)N)C3=NC=NC4=C3C=CN4 [Capivasertib] (first compound max 1 µM, 7x7, partner max 3 µM) | 0.338 | 0.34 | 0.673 | 0.15 | 0.801 | 0.179 | 0.185 | 0.213 | 0.242 | 0.418 | 0.2 | 0.387 | 0.334 | 0.774 | 0.43 | 0.143 | 0.318 | 1 | 1 | 0.281
Cc1c2c(nn1C)CSCc1cc(n(C)n1)CSc1cc(c3ccccc3c1)OCCCc1c(C(=O)O)n(C)c3c-2c(Cl)ccc13 [AZD5991] + C=CCn1c(=O)c2cnc(Nc3ccc(N4CCN(C)CC4)cc3)nc2n1-c1cccc(C(C)(C)O)n1 [AZD1775] (first compound max 1 µM, partner max 1 µM) | 0.967 | 0.891 | 0.992 | 0.265 | 0.404 | 0.802 | 0.835 | 0.517 | 0.523 | 0.732 | 0.269 | 0.86 | 0.715 | 0.796 | 0.945 | 0.659 | 0.289 | 1 | 1 | 0.386
Cc1c2c(nn1C)CSCc1cc(n(C)n1)CSc1cc(c3ccccc3c1)OCCCc1c(C(=O)O)n(C)c3c-2c(Cl)ccc13 [AZD5991] + CC1(C)CCC(CN2CCN(c3ccc(C(=O)NS(=O)(=O)c4ccc(NCC5CCOCC5)c([N+](=O)[O-])c4)c(Oc4cnc5[nH]ccc5c4)c3)CC2)=C(c2ccc(Cl)cc2)C1 [Venetoclax] (first compound max 1 µM, 7x7, partner max 1 µM) | 0.289 | 0.151 | 0.881 | 0.317 | 0.73 | 0.523 | 0.171 | 0.16 | 0.145 | 0.587 | 0.196 | 0.921 | 0.345 | 0.717 | 0.824 | 0.157 | 0.289 | 1 | 1 | 0.255
Cc1c2c(nn1C)CSCc1cc(n(C)n1)CSc1cc(c3ccccc3c1)OCCCc1c(C(=O)O)n(C)c3c-2c(Cl)ccc13 [AZD5991] + CN(C)CCCOc1ccc(-c2ccc3ncc4c(c3c2)n(C2CCOCC2)c(=O)n4C)cn1 [AZD0156] (first compound max 1 µM, 7x7, partner max 1 µM) | 0.314 | 0.214 | 0.629 | 0.257 | 0.463 | 0.266 | 0.427 | 0.363 | 0.375 | 0.659 | 0.293 | 0.454 | 0.382 | 0.676 | 0.354 | 0.259 | 0.328 | 1 | 1 | 0.279
Cc1c2c(nn1C)CSCc1cc(n(C)n1)CSc1cc(c3ccccc3c1)OCCCc1c(C(=O)O)n(C)c3c-2c(Cl)ccc13 [AZD5991] + C[C@@H]1COCCN1C2=NC(=NC(=C2)C3(CC3)[S@](=N)(=O)C)C4=C5C=CNC5=NC=C4 [AZD6738] (first compound max 1 µM, 7x7, partner max 10 µM) | 0.874 | 0.345 | 0.97 | 0.389 | 0.554 | 0.593 | 0.567 | 0.615 | 0.531 | 0.859 | 0.193 | 0.961 | 0.755 | 0.811 | 0.885 | 0.501 | 0.318 | 1 | 1 | 0.445
Cc1c2c(nn1C)CSCc1cc(n(C)n1)CSc1cc(c3ccccc3c1)OCCCc1c(C(=O)O)n(C)c3c-2c(Cl)ccc13 [AZD5991] + C[C@@H](Nc1cc(F)cc(F)c1)c1cc(C(=O)N(C)C)cc2c(=O)cc(N3CCOCC3)oc12 [AZD8186] (first compound max 1 µM, 7x7, partner max 3 µM) | 0.294 | 0.45 | 0.711 | 0.201 | 0.931 | 0.349 | 0.439 | 0.283 | 0.352 | 0.659 | 0.245 | 0.481 | 0.598 | 0.672 | 0.437 | 0.206 | 0.299 | 1 | 1 | 0.354
Cc1c2c(nn1C)CSCc1cc(n(C)n1)CSc1cc(c3ccccc3c1)OCCCc1c(C(=O)O)n(C)c3c-2c(Cl)ccc13 [AZD5991] + Cc1cc2ncnn2cc1Nc1ncc2c(n1)n(C1CCOCC1)c(=O)n2C [AZD7648] (first compound max 1 µM, 7x7, partner max 10 µM) | 0.245 | 0.319 | 0.629 | 0.295 | 0.619 | 0.305 | 0.272 | 0.279 | 0.363 | 0.599 | 0.203 | 0.481 | 0.458 | 0.675 | 0.334 | 0.263 | 0.367 | 1 | 1 | 0.334
Cc1c2c(nn1C)CSCc1cc(n(C)n1)CSc1cc(c3ccccc3c1)OCCCc1c(C(=O)O)n(C)c3c-2c(Cl)ccc13 [AZD5991] + Cn1cnc2c(F)c(Nc3ccc(Br)cc3Cl)c(C(=O)NOCCO)cc21 [Selumetinib] (first compound max 1 µM, 7x7, partner max 3 µM) | 0.237 | 0.393 | 0.748 | 0.24 | 0.398 | 0.776 | 0.218 | 0.818 | 0.176 | 0.913 | 0.224 | 0.414 | 0.839 | 0.789 | 0.427 | 0.226 | 0.241 | 1 | 1 | 0.209
